Ends that are not written are not given here.
Key:
[1] = system: Rho mutants, R66G and Y80C; format: cell-based, Escherichia coli; conditions: 50 μM IPTG
CD spectrometry = format: physicochemical; conditions: 10 mM 2-(N-morpholino)ethanesulfonic acid pH 5.5, 190 to 270 nm, 25 °C
E. coli MG1655 = format: cell-based, Escherichia coli; conditions: MG1655, pNL150, IPTG induction (100 μM), LB, 37 °C, 6 h; three independent colonies
Mycobacterium bovis BCG = format: cell-based
P167L Rho [2] = molecular target: T1, P167L Rho (Escherichia coli, UniProt P0AG30, P167L); assay: biochemical; format: binding
[3] = pH 5.5
E. coli Rho [4] = assay: single round in vitro Rho-dependent transcription termination, T7A1-trpt′ template; format: biochemical, Escherichia coli; conditions: no Rho
MG1655 gene expression = format: cell-based, Escherichia coli; conditions: qRT-PCR, relative to empty vector
[5] = system: Rho proteins from pathogenic bacteria; format: biochemical; conditions: 35 μM peptide 33, 50 nM Rho, E. coli RNAP stalled EC, trpt′
[6] = system: Rho-dependent termination (galEP3 reporter); assay: in vivo Rho-dependent termination, galEP3 reporter, MacConkey-galactose plates; format: cell-based, Escherichia coli; conditions: MC4100 galEP3, MacConkey-galactose plates, overexpression
isolated Rho–NTD monomer = assay: interaction with isolated Rho-NTD monomer; format: binding, Escherichia coli; conditions: data not shown
E. coli Rho [7] = format: biochemical, Escherichia coli
E134K Rho mutant = format: cell-based, Escherichia coli; conditions: IPTG induction
E134K Rho = E134K Rho (Escherichia coli, UniProt P0AG30, E134K); format: biochemical; conditions: E134K Rho + peptide; λTR1 RNA; exponential decay fit; two to three measurements
E. coli Rho [8] = assay: Rho-mediated RNA release from stalled (roadblocked) elongation complex; format: biochemical, Escherichia coli; conditions: for inhibition of Rho-induced RNA release from stalled EC (in words): Fig. 3E; for inhibition of Rho-induced RNA release from stalled EC (in words) / Frac. of RNA released (%): Fig. S4B
WT Rho [9] = molecular target: T2, WT Rho (Escherichia coli, UniProt P0AG30); format: biochemical
[10] = system: Rho-dependent termination (trpt′ and trac terminators, lacZ reporter); format: cell-based, Escherichia coli
[11] = system: Rho mutants, R144E, R146E, and E148R; format: cell-based, Escherichia coli; conditions: 0 and 100 μM IPTG
[12] = system: Mycobacterium smegmatis mc^2155; format: cell-based
[13] = system: Rho-dependent termination (trac and trpt′ lacZ fusions); format: cell-based, Escherichia coli; conditions: qRT-PCR, 2−ΔΔCt relative to empty vector; 100 μM IPTG (20 μM for Psu); at least three biological replicates
P167L Rho [14] = molecular target: T1, P167L Rho; conditions: ref [11]; cited from earlier work
[15] = system: Rho point mutants, R144E, R146E, and, E148R; conditions: cited from earlier work
WT Rho [16] = molecular target: T2, WT Rho; conditions: earlier work; ref [11]; cited from earlier work
E. coli Rho [17] = conditions: compared with peptide 33; ref [9]; cited from earlier work
Text: Next, we assayed the peptide-mediated inhibition of the in vitro transcription termination functions of the Rho. We used a linear DNA template where a trpt′ terminator is fused downstream of a strong T7A1 promoter. On this template, efficient transcription termination over a terminator zone is usually observed in the presence of Rho (Fig. 3D; ([16])). The amount of run-off transcripts at the end of this template gives the measure of Rho inhibition by the peptides. We observed that the amount of ...

pathogenic Rho proteins = conditions: ref [13]; cited from earlier work
P167L Rho [18] = molecular target: T1, P167L Rho; format: binding; conditions: Rho:ligand in μg: 1:6 (peptide 16), 1:4 (peptide 33), 1:3 (Psu); 1 mM ATP, pH 8.0, 37 °C, 20 min; SD of two or three measurements
E. coli Rho [19] = conditions: cited from earlier work
[20] = Rho + NusG-CTD (5 μM) + ATP, average of three experiments ± SD, Fig. 6A
[21] = Rho + Poly dC34 (10 μM) + ATP, average of three experiments ± SD, Fig. 6A
[22] = Rho + PolyC (2 mM Poly(rC)), average of three experiments ± SD, Fig. 6A
[23] = Rho + ATP, average of three experiments ± SD, Fig. 6A
[24] = Rho bound to the single-stranded DNA and RNA

MHHHHHHTPAQFIFFRVKVRNWHTSVSVKAWLFWRMREDFQPDTD [peptide 33]
effect on growth of Rho mutants compared with WT (in words) [1]: very severe
secondary structure by CD (in words) (CD spectrometry): predominantly α-helical
growth defect upon expression (in words) (E. coli MG1655): severe growth defects
growth phenotype upon streaking (in words) (Mycobacterium bovis BCG): very sick phenotype
Kd (P167L Rho [2]; ITC, 1 μM Rho P167L, 50 μM peptide, 1 mM ATP, pH 8.0, 25 °C, average of three experiments ± SD, Fig. 4B): 16.6 ± 3 nM
Kd (P167L Rho [2]; P167L Rho, ITC): 17 nM
Kd (P167L Rho [2]; [20]): 26.5 ± 0.3 nM
Kd (P167L Rho [2]; [21]): 255 ± 100 nM
Kd (P167L Rho [2]; [22]): 164 ± 48 nM
n (P167L Rho [2]; [23]): 3.75 ± 0.2
ΔG (P167L Rho [2]; [23]): -11 ± 0.1 kcal/mol
ΔH (P167L Rho [2]; [23]): -28 ± 0.9 kcal/mol
ΔS (P167L Rho [2]; [23]): -57 ± 3 cal/mol.K
n (P167L Rho [2]; [20]): 3.1 ± 0.1
ΔG (P167L Rho [2]; [20]): -10.3 ± 0.02 kcal/mol
ΔH (P167L Rho [2]; [20]): -26 ± 3 kcal/mol
ΔS (P167L Rho [2]; [20]): -52 ± 10 cal/mol.K
n (P167L Rho [2]; [21]): 1.9 ± 0.3
ΔG (P167L Rho [2]; [21]): -9.1 ± 0.3 kcal/mol
ΔH (P167L Rho [2]; [21]): -23.7 ± 4 kcal/mol
ΔS (P167L Rho [2]; [21]): -49.00 ± 13 cal/mol.K
n (P167L Rho [2]; [22]): 2.9 ± 0.1
ΔG (P167L Rho [2]; [22]): -9.3 ± 0.2 kcal/mol
ΔH (P167L Rho [2]; [22]): -27.1 ± 3.5 kcal/mol
ΔS (P167L Rho [2]; [22]): -59.6 ± 12.3 cal/mol.K
binding stoichiometry (in words) (P167L Rho [2]; [24]): also reduced
thermodynamic parameters (in words) (P167L Rho [2]; [24]): not changed significantly
affinity for Rho (in words) (P167L Rho [2]; in the presence of NusG CTD): not affected significantly
reduction of affinity for Rho (P167L Rho [2]; in the presence of polyC): 10 fold
reduction of affinity for Rho (P167L Rho [2]; in the presence of polydC34): 15 fold
solubility at mildly acidic pH (in words) [3]: properly soluble at a mildly acidic pH
effect on transcription when Rho was absent (in words) (E. coli Rho [4]): did not have any effect on transcription when Rho was absent
upregulation of tested genes (in words) (MG1655 gene expression): higher level of upregulation of these genes than that when its CTDΔ8 derivative was expressed
inhibition of RNA release by pathogenic Rho proteins (in words) [5]: could inhibit the termination process by all the different Rho proteins
colour of colonies, galEP3 reporter (in words) [6]: appearance of red colonies
interaction with isolated Rho-NTD monomer (in words) (isolated Rho–NTD monomer): unable to interact with an isolated Rho–NTD monomer
inhibition of ATPase activity of E. coli Rho (in words) (E. coli Rho [7]): more efficient than peptide 16 in inhibiting this Rho function
effect on growth of E134K Rho compared with WT (in words) (E134K Rho mutant): less severe effect on the growth of the E134K Rho than its WT counterpart
λ (average rate of ATP hydrolysis) (E134K Rho): 0.0155 min⁻¹
inhibition of Rho-induced RNA release from stalled EC (in words) (E. coli Rho [8]): significantly inhibited
inhibition of Rho-induced RNA release from stalled EC (in words) (E. coli Rho [8]; listed as Peptide 33): exerted its action at a lower concentration than peptide 16
concentration for maximal effects (E. coli Rho [8]; in general, varied between different lots): ≥ 50 µM
Frac. of RNA released (%) (E. coli Rho [8]; peptide 25, Rho 50 nM): 31± 0.4%
Frac. of RNA released (%) (E. coli Rho [8]; peptide 35, Rho 50 nM): 16 ± 0.4%
Frac. of RNA released (%) (E. coli Rho [8]; peptide 50, Rho 50 nM): 13 ± 0.4%
reduction of rate of ATP hydrolysis (WT Rho [9]; WT Rho): ~5.5 fold
λ (average rate of ATP hydrolysis) (WT Rho [9]; WT Rho + peptide, λTR1 RNA, exponential decay fit, two to three measurements): 0.009 min⁻¹
in vivo antitermination / Rho inhibitory properties (in words) ([10]; Fig. 3): strong in vivo antitermination of Rho-dependent termination
peptide-induced growth defect with Rho mutants (in words) [11]: could not prevent the peptide-induced growth defect
growth phenotype upon streaking (in words) [12]: very sick phenotype
transformants obtained (in words) [12]: fewer colonies than those obtained from the transformation with the empty vector

B1: Psu: bacteriophage P4 capsid protein, natural Rho antagonist, ∼42-kDa dimer (protein)
chain: MESTALQQAFDTCQNNKAAWLQRKNELAAAEQEYLRLLSGEGRNVSRLDELRNIIEVRKWQVNQAAGRYIRSHEAVQHISIRDRLNDFMQQHGTALAAALAPELMGYSELTAIARNCAIQRATDALREALLSWLAKGEKINYSAQDSDILTTIGFRPDVASVDDSREKFTPAQNMIFSRKSAQLASRQSV
growth phenotype upon streaking (in words) (Mycobacterium bovis BCG): very sick phenotype
enhancement of expression of Plac-trac-lacZ fusion [13]: 28 fold
upregulation of tested genes (in words) (MG1655 gene expression): highest level of upregulations of the tested genes
in vitro stable complex with P167L Rho (in words) (P167L Rho [14]): stable complex between Psu and Rho could form if a mutant Rho, P167L, was used
inhibition of RNA release by pathogenic Rho proteins (in words) [5]: could inhibit the termination process by all the different Rho proteins
colour of colonies, galEP3 reporter (in words) [6]: appearance of red colonies
binding of Rho mutants R144E, R146E, E148R (in words) [15]: did not bind to Psu
in vitro stable complex with WT Rho (in words) (WT Rho [16]): failed to obtain a stable in vitro Rho–Psu complex with the WT Rho
in vitro Rho inhibition in termination assay (in words) (E. coli Rho [17]): A similar level of in vitro Rho inhibition
inhibition of Rho-induced RNA release from stalled EC (in words) (E. coli Rho [8]): significantly inhibited
Frac. of RNA released (%) (E. coli Rho [8]; Psu 5.0, Rho 50 nM): 12 ± 0.4%
inhibition of ATP hydrolysis of Salmonella and Vibrio Rho with poly(C) RNA (in words) (pathogenic Rho proteins): too fast to be inhibited by Psu
Fraction of Rho associated (%) (P167L Rho [18]): 49 ± 5%
colour of colonies, lacZ reporter (in words) ([10]; trpt′ and trac, LB-X-gal, induction by 50 μM IPTG): deep blue colonies
rate of RNA-dependent ATP hydrolysis of Rho (in words) (E. coli Rho [19]): reduced the rate of RNA-dependent ATP hydrolysis
growth phenotype upon streaking (in words) [12]: very sick phenotype
transformants obtained (in words) [12]: fewer colonies than those obtained from the transformation with the empty vector

Source: article PMC8141534 (The Journal of Biological Chemistry, 2021)
